Experimental data published in patent publication US4382958A, “Secondary amines and compositions for treatment of hypoglycaemia or obesity” (priority 1980, dated 1983).
Read-outs that look alike come from different tables or passages of the source.

Experiments:
[1] = test system: Platelet aggregation (response to collagen); test: Platelet aggregation inhibition activity: response to intravenous collagen in mice; type: in vivo; settings: two hours before collagen 400 μg/kg i.v.
Procedure: Male CFLP mice (ca 20 g, n=8) were dosed orally with compound or vehicle (controls) after an overnight fast. Two hours later each mouse received an intravenous dose of collagen (400 μg/kg, pH 6-6.6). Exactly 30 sec. after injection of collagen, each mouse was placed in a chamber of CO2 until respiration ceased. […] Each concentration was expressed as a percent of that obtained in a tail blood sample taken immediately before injection of collagen.

Rat hearts = test: Cardiac activity: rat hearts perfused by the Langendorff procedure
Procedure: Rat hearts were perfused by the Langendorff procedure.
Hearts were dissected free within 30 seconds of death and reverse perfused via the aorta and coronary vessels with Krebs-Ringer bicarbonate solution (pH 7.4, 37° C.) gassed with 95% oxygen: 5% carbon dioxide at a flow rate between 8-12 cm^3 /minute. Responses were observed after injection of drug dissolved in isotonic saline into the perfusion media.
Results are expressed as a percentage of the maximum response due to salbutamol.

Female CFLP mice [2] = test: Effect on energy expenditure and food intake of mice; type: in vivo; settings: Mus musculus, % of mice dosed with water; for response vs control in vivo at 22.9 mg/kg: 22.9 mg/kg po; for response vs control in vivo at 20 mg/kg: 20.0 mg/kg po; for response vs control in vivo at 23.3 mg/kg: 23.3 mg/kg po; for response vs control in vivo at 24.9 mg/kg: 24.9 mg/kg po; for response vs control in vivo at 20.2 mg/kg: 20.2 mg/kg po; for response vs control in vivo at 19.1 mg/kg: 19.1 mg/kg po; for response vs control in vivo at 20.3 mg/kg: 20.3 mg/kg po; for response vs control in vivo at 22.1 mg/kg: 22.1 mg/kg po; for response vs control in vivo at 5.7 mg/kg: 5.7 mg/kg po
Procedure: Female CFLP mice each weighing approximately 24 g were given food and water ad lib before and during the experiment. The compounds were dissolved in water by addition of one mole of hydrochloric acid per mole of compound and these solutions were administered orally to each of 12 mice. A further 12 mice were dosed orally with water. The mice were placed in boxes through which air was drawn and the oxygen content of the air leaving the boxes was measured. The energy expenditure of the mice was calculated for 21 hours after dosing from the volume of air leaving the boxes and its oxygen content following the principles described by J. B. de V. Weir, J. Physiol. […] The food intake of the mice was measured over this same period of 21 hours. The results are expressed as a percentage of the mean food intake or rate of energy expenditure of the mice dosed with water.

Female CFLP mice [3] = test: Hypoglycaemic activity: blood glucose of fasted mice after subcutaneous glucose; type: in vivo; settings: Mus musculus, read-out: REDUCTION IN AREA UNDER BLOOD GLUCOSE CURVE (%); for inhibition in vivo at 1 µmol/kg: 1.0 μ mol/kg oral
Procedure: Female CFLP mice, weighing approximately 25 g, were fasted for 24 hours prior to the study. The compounds under study were administered orally as an aqueous solution to each of 8 mice. 30 minutes later a blood sample ([…]) was obtained from the tail for the analysis of blood glucose. Immediately after taking this blood sample, glucose (1 g/kg body weight) was administered subcutaneously to each mouse. 8 mice were given water as a control. Blood samples were then obtained from each mouse at 30 minute intervals for 120 minutes.
Compounds that produced a significant (P<0.05) reduction on blood glucose, compared with control mice given water, at any time interval, were considered active. The area under the blood glucose curve over the 2 hour period after the administration of the glucose was calculated for each compound and compared with the value for control animals.

[4] = 30 μg added to perfusate, percentage of the maximum response due to salbutamol, read-out: HEART TENSION
[5] = 0-3h, read-out: MEAN ENERGY EXPENDITURE (%) 0-3h
[6] = 0-21h, read-out: MEAN ENERGY EXPENDITURE (%) 0-21h
[7] = over 21 hours, read-out: MEAN FOOD INTAKE (%)
[8] = 30 μg added to perfusate, percentage of the maximum response due to salbutamol, read-out: HEART RATE
[9] = 2.5 μ mol/kg oral, 2 hour period after glucose, vs control mice given water
[10] = 2 hour period after glucose, vs control mice given water

**Q.** For `CC(=O)Oc1ccccc1C(=O)O` [Aspirin, reference compound], which “% INHIBITION OF RESPONSE TO COLLAGEN” value ([1]; 600 μ mol/kg po) is on record?
**A.** The value was 47%.

**Q.** Which results are given for `CC(Cc1ccc(OCCCCO)cc1)NCC(O)c1cccc(C(F)(F)F)c1` (centres unmarked) [Example 2, N-[2-(4-(4-hydroxybutoxy)phenyl)-1-methylethyl]-2-hydroxy-2-(3-trifluoromethylphenyl)ethanamine]?
**A.** Emax (Rat hearts; [4]): 22%; Emax (Rat hearts; read-out: HEART RATE): 0%; % INHIBITION OF RESPONSE TO COLLAGEN ([1]; 1 μ mol/kg po): 26%; response vs control in vivo at 22.9 mg/kg (Female CFLP mice [2]; [5]): 168%; response vs control in vivo at 22.9 mg/kg (Female CFLP mice [2]; [6]): 135%; response vs control in vivo at 22.9 mg/kg (Female CFLP mice [2]; [7]): 89%; inhibition in vivo at 2.4 µmol/kg (Female CFLP mice [3]; 2.4 μ mol/kg oral, 2 hour period after glucose, vs control mice given water): 57%

**Q.** Which Emax (Rat hearts; [8]) does the source give for `CC(Cc1ccc(OCCO)cc1)NCC(O)c1cccc(C(F)(F)F)c1` (centres unmarked) [Example 3, N-[2-(4-(2-Hydroxyethoxy)-phenyl)-1-methylethyl]-2-hydroxy-2-(3-trifluoromethylphenyl)ethanamine] here?
**A.** Its Emax is 17%.

**Q.** And the Emax (Rat hearts; [4])?
**A.** The Emax was 50%.

**Q.** And the “% INHIBITION OF RESPONSE TO COLLAGEN” value ([1]; 1 μ mol/kg po)?
**A.** Its value is 47%.

**Q.** And the response vs control in vivo at 20 mg/kg (Female CFLP mice [2]; [5])?
**A.** Its response vs control in vivo at 20 mg/kg is 178%.

**Q.** What about the response vs control in vivo at 20 mg/kg (Female CFLP mice [2]; [6]) of the same compound?
**A.** Its response vs control in vivo at 20 mg/kg is 134%.

**Q.** What about the response vs control in vivo at 20 mg/kg (Female CFLP mice [2]; [7]) of the same compound?
**A.** The response vs control in vivo at 20 mg/kg was 82%.

**Q.** And the inhibition in vivo at 2.5 µmol/kg (Female CFLP mice [3]; [9])?
**A.** Its inhibition in vivo at 2.5 µmol/kg is 52%.

**Q.** `CC(Cc1ccc(OCCCCCCCCCCCO)cc1)NCC(O)c1cccc(C(F)(F)F)c1` (centres unmarked) [Example 6, N-[2-(4-(11-Hydroxyundecyloxy)phenyl)1-methylethyl]-2-hydroxy-2-(3-trifluoromethylphenyl)-ethanamine] was tested. Which Emax (Rat hearts; [8]) did it give?
**A.** The Emax was 0%.

**Q.** What about the Emax (Rat hearts; [4]) of the same compound?
**A.** The Emax was 36%.

**Q.** And the response vs control in vivo at 23.3 mg/kg (Female CFLP mice [2]; [5])?
**A.** Its response vs control in vivo at 23.3 mg/kg is 132%.

**Q.** And the response vs control in vivo at 23.3 mg/kg (Female CFLP mice [2]; [6])?
**A.** Its response vs control in vivo at 23.3 mg/kg is 101%.

**Q.** What about the response vs control in vivo at 23.3 mg/kg (Female CFLP mice [2]; [7]) of the same compound?
**A.** Its response vs control in vivo at 23.3 mg/kg is 99%.

**Q.** And the inhibition in vivo at 2.5 µmol/kg (Female CFLP mice [3]; [9])?
**A.** Its inhibition in vivo at 2.5 µmol/kg is 24%.

**Q.** How did the Emax (Rat hearts; [8]) turn out when `CC(Cc1ccc(OC(C)(C)CO)cc1)NCC(O)c1cccc(C(F)(F)F)c1` (centres unmarked) [Example 7, N-[2-(4-(1,1-Dimethyl-2-hydroxyethoxy)phenyl)-1-methylethyl]-2-hydroxy-2-(3-trifluoromethylphenyl)-ethanamine] was run?
**A.** Its Emax is 46%.

**Q.** What about the Emax (Rat hearts; [4]) of the same compound?
**A.** Its Emax is 29%.

**Q.** What about the response vs control in vivo at 24.9 mg/kg (Female CFLP mice [2]; [5]) of the same compound?
**A.** The response vs control in vivo at 24.9 mg/kg was 145%.

**Q.** And the response vs control in vivo at 24.9 mg/kg (Female CFLP mice [2]; [6])?
**A.** Its response vs control in vivo at 24.9 mg/kg is 118%.

**Q.** And the response vs control in vivo at 24.9 mg/kg (Female CFLP mice [2]; [7])?
**A.** The response vs control in vivo at 24.9 mg/kg was 116%.

**Q.** What about the inhibition in vivo at 2.5 µmol/kg (Female CFLP mice [3]; po, 2 h) of the same compound?
**A.** Its inhibition in vivo at 2.5 µmol/kg is 45%.

**Q.** Which results are given for `COc1ccc(C(O)CNC(C)Cc2ccc(OCCO)cc2)cc1F` (centres unmarked) [Example 8, N-[2-(4-(2-Hydroxyethoxy)phenyl)-1-methylethyl]-2-hydroxy-2-(3-fluoro-4-methoxyphenyl)-ethanamine]?
**A.** Emax (Rat hearts; [8]): 13%; Emax (Rat hearts; [4]): 13%; response vs control in vivo at 20.2 mg/kg (Female CFLP mice [2]; [5]): 138%; response vs control in vivo at 20.2 mg/kg (Female CFLP mice [2]; [6]): 96%; response vs control in vivo at 20.2 mg/kg (Female CFLP mice [2]; [7]): 86%; inhibition in vivo at 12.5 µmol/kg (Female CFLP mice [3]; 12.5 μ mol/kg oral, 2 hour period after glucose, vs control mice given water): 21%

**Q.** How did the response vs control in vivo at 19.1 mg/kg (Female CFLP mice [2]; [5]) turn out when `CC(C)(CCc1ccc(OCCO)cc1)NCC(O)c1ccccc1` (centres unmarked) [Example 9, N-[3-[4-(2-Hydroxyethoxy)phenyl]-1,1-dimethylpropyl]-2-hydroxy-2-phenylethanamine] was run?
**A.** Its response vs control in vivo at 19.1 mg/kg is 102%.

**Q.** And the response vs control in vivo at 19.1 mg/kg (Female CFLP mice [2]; [6])?
**A.** Its response vs control in vivo at 19.1 mg/kg is 98%.

**Q.** What about the response vs control in vivo at 19.1 mg/kg (Female CFLP mice [2]; [7]) of the same compound?
**A.** Its response vs control in vivo at 19.1 mg/kg is 91%.

**Q.** What about the inhibition in vivo at 50 µmol/kg (Female CFLP mice [3]; 50.0 μ mol/kg oral, 2 hour period after glucose, vs control mice given water) of the same compound?
**A.** The inhibition in vivo at 50 µmol/kg was 55%.

**Q.** For `CC(CCc1ccc(OCCO)cc1)NCC(O)c1cccc(Cl)c1` (centres unmarked) [Example 10, N-[3-(4-(2-Hydroxyethoxy)phenyl)-1-methylpropyl]-2-hydroxy-2-(3-chlorophenyl)ethanamine], which response vs control in vivo at 20.3 mg/kg (Female CFLP mice [2]; [5]) is on record?
**A.** Its response vs control in vivo at 20.3 mg/kg is 159%.

**Q.** And the response vs control in vivo at 20.3 mg/kg (Female CFLP mice [2]; [6])?
**A.** Its response vs control in vivo at 20.3 mg/kg is 114%.

**Q.** What about the response vs control in vivo at 20.3 mg/kg (Female CFLP mice [2]; [7]) of the same compound?
**A.** Its response vs control in vivo at 20.3 mg/kg is 88%.

**Q.** And the inhibition in vivo at 2.5 µmol/kg (Female CFLP mice [3]; [9])?
**A.** The inhibition in vivo at 2.5 µmol/kg was 23%.

**Q.** How did the response vs control in vivo at 22.1 mg/kg (Female CFLP mice [2]; [5]) turn out when `Cc1cc(CC(C)NCC(O)c2cccc(C(F)(F)F)c2)ccc1OCCO` (centres unmarked) [Example 11, N-[2-{4-(2-Hydroxyethoxy)-3-methylphenyl}-1-methylethyl]-2-hydroxy-2-(3-trifluoromethylphenyl)ethanamine] was run?
**A.** Its response vs control in vivo at 22.1 mg/kg is 136%.

**Q.** And the response vs control in vivo at 22.1 mg/kg (Female CFLP mice [2]; [6])?
**A.** The response vs control in vivo at 22.1 mg/kg was 113%.

**Q.** And the response vs control in vivo at 22.1 mg/kg (Female CFLP mice [2]; [7])?
**A.** Its response vs control in vivo at 22.1 mg/kg is 115%.

**Q.** What about the inhibition in vivo at 1 µmol/kg (Female CFLP mice [3]; [10]) of the same compound?
**A.** The inhibition in vivo at 1 µmol/kg was 31%.

**Q.** Which results are given for `C[C@H](Cc1ccc(OCCCCO)cc1)NC[C@H](O)c1cccc(C(F)(F)F)c1` [Example 13, N-[2-{4-(4-Hydroxybutoxy)phenyl}-1-(R)-1-methylethyl]-2-(R)-2-hydroxy-2-(3-trifluoromethylphenyl)ethanamine]?
**A.** Emax (Rat hearts; [8]): 17%; Emax (Rat hearts; [4]): 47%; response vs control in vivo at 5.7 mg/kg (Female CFLP mice [2]; [5]): 134%; response vs control in vivo at 5.7 mg/kg (Female CFLP mice [2]; [6]): 116%; response vs control in vivo at 5.7 mg/kg (Female CFLP mice [2]; [7]): 93%; inhibition in vivo at 1 µmol/kg (Female CFLP mice [3]; [10]): 37%

**Q.** Which results are given for `CC(C)(C)NCC(O)c1ccc(O)c(CO)c1` (centres unmarked) [Salbutamol, reference compound]?
**A.** Emax (Rat hearts; salbutamol maximum response (reference), dose not stated, read-out: HEART RATE): 100%; Emax (Rat hearts; salbutamol maximum response (reference), dose not stated, read-out: HEART TENSION): 100%
